Where a name gives a salt, the structure may show the parent alone.

A short description of the data set: in vitro. To be noted: human, hek293t cells.
Broadly, the viability is a read-out of living cells in per cent, often relative to untreated cells. Regarding `COc1ccc(NC(=O)CCl)cc1S(=O)(=O)N1CCOCC1` [4-D15, 2-chloro-N-[4-methoxy-3-(morpholine-4-sulfonyl)phenyl]acetamide], the viability at 48 h, 25 µM amounted to 0.627%.
Take `Cc1ccc(C(=O)CN(C(=O)CCl)c2ccccc2)cc1` [4-B13, 2-chloro-N-[2-(4-methylphenyl)-2-oxoethyl]-N-phenylacetamide]: the viability at 48 h, 25 µM came out at 0.038%.
Consider `CC(C)OC(=O)c1ccc(NC(=O)C(C)Cl)cc1` (stereo not shown) [4-K08, propan-2-yl 4-(2-chloropropanamido)benzoate], for which the viability at 48 h, 25 µM turned out to be 76.3%.
With `CCCn1c(C)cc(C=C(C#N)C(=O)N2CCCC2)c1C` [9-I03, 3-(2,5-dimethyl-1-propyl-1H-pyrrol-3-yl)-2-(pyrrolidine-1-carbonyl)prop-2-enenitrile], the viability at 48 h, 25 µM is 134%.
Turning to `CC(Cl)C(=O)Nc1ccc(Cl)cc1Cl` (stereo not shown) [4-L17, 2-chloro-N-(2,4-dichlorophenyl)propanamide], the viability at 48 h, 25 µM came out at 81.6%.
For `C=CC(=O)NCC1CS(=O)(=O)c2ccccc2O1` (stereo not shown) [3-N17, N-[(4,4-dioxo-2,3-dihydro-1,4lambda6-benzoxathiin-2-yl)methyl]prop-2-enamide], the viability at 48 h, 25 µM was 79.4%.
As for `C#CCN(C(=O)c1ccc(NC(=O)C=C)cc1)C1CCCCC1` [3-D13, N-cyclohexyl-4-(prop-2-enamido)-N-(prop-2-yn-1-yl)benzamide], the viability at 48 h, 25 µM was 15.9%.
As to `CCC(C)c1ccccc1NC(=O)C(C)Cl` (stereo not shown) [4-O10, N-[2-(butan-2-yl)phenyl]-2-chloropropanamide], the viability at 48 h, 25 µM stood at 85.1%.
Consider `Cc1cccc(NC(=O)[C@@H]2CCCN2C(=O)CCl)n1` [5-C06, (2S)-1-(2-chloroacetyl)-N-(6-methylpyridin-2-yl)pyrrolidine-2-carboxamide], for which the viability at 48 h, 25 µM came out at 0.946%.
In the case of `COc1ccccc1[C@H]1C[C@H](NC(=O)CCl)C1` [7-L18, 2-chloro-N-[(1r,3r)-3-(2-methoxyphenyl)cyclobutyl]acetamide], the viability at 48 h, 25 µM is 0.928%.
Regarding `CC(Cl)C(=O)NCc1csc2ccccc12` (stereo not shown) [7-C11, N-[(1-benzothiophen-3-yl)methyl]-2-chloropropanamide], the viability at 48 h, 25 µM stood at 81.9%.
In the case of `C=CC(=O)NCc1cnc(N2CCOCC2)s1` [1-M03, N-{[2-(morpholin-4-yl)-1,3-thiazol-5-yl]methyl}prop-2-enamide], the viability at 48 h, 25 µM was found to be 86.3%.
Regarding `O=C(CCl)Nc1cccc(S(=O)(=O)NC2=NCCCCC2)c1` [4-D08, N-{3-[(azepan-2-ylidene)sulfamoyl]phenyl}-2-chloroacetamide], the viability at 48 h, 25 µM stood at 1.32%.
The value for `CNC(=O)c1ccn(C2CCCN(C(=O)CCl)C2)n1` (stereo not shown) [5-I08, 1-[1-(2-chloroacetyl)piperidin-3-yl]-N-methyl-1H-pyrazole-3-carboxamide] was 1.61%; that for `O=C(CCl)c1cc(Cl)ccc1Cl` [10-E16, 2-chloro-1-(2,5-dichlorophenyl)ethan-1-one] was 4.26%.
Consider `N#CC(=Cc1ccc(-c2ccccc2)cc1)C(=O)N1CCCC1` [9-B08, 3-{[1,1'-biphenyl]-4-yl}-2-(pyrrolidine-1-carbonyl)prop-2-enenitrile], for which the viability at 48 h, 25 µM is 71.2%.
On to `O=C(CCl)NC1c2ccccc2CCC1n1ccnc1` (stereo not shown) [7-N14, 2-chloro-N-[2-(1H-imidazol-1-yl)-1,2,3,4-tetrahydronaphthalen-1-yl]acetamide hydrochloride], for which the viability at 48 h, 25 µM stood at 95.8%.
As for `N#CC(=Cc1ccc(Cl)cc1)C(=O)Nc1nccs1` [8-C11, 3-(4-chlorophenyl)-2-cyano-N-(1,3-thiazol-2-yl)prop-2-enamide], the viability at 48 h, 25 µM is 79%.
With `CN1C=CC(=C(C#N)C(=O)CCl)C=C1` [10-G21, 4-chloro-2-(1-methyl-1,4-dihydropyridin-4-ylidene)-3-oxobutanenitrile], the viability at 48 h, 25 µM is 1.3%.
As to `O=C(CCl)N1CCOc2c1cccc2C(F)(F)F` [5-G08, 2-chloro-1-[8-(trifluoromethyl)-3,4-dihydro-2H-1,4-benzoxazin-4-yl]ethan-1-one], the viability at 48 h, 25 µM is 0.974%.
For the compound `C=CC(=O)NC(C)(Cn1cccn1)C(N)=O` (stereo not shown) [1-A20, N-{1-carbamoyl-1-[(1H-pyrazol-1-yl)methyl]ethyl}prop-2-enamide], the viability at 48 h, 25 µM came to 113%.
Turning to `C=CC(=O)Nc1ccnn1C1CCCC1` [2-K13, N-(1-cyclopentyl-1H-pyrazol-5-yl)prop-2-enamide], the viability at 48 h, 25 µM is 24%.
On to `C=CC(=O)NCc1cnc(CC(C)C)s1` [1-J10, N-{[2-(2-methylpropyl)-1,3-thiazol-5-yl]methyl}prop-2-enamide], for which the viability at 48 h, 25 µM came out at 84.2%.
Under `N#CC(=Cc1cnn(CCCl)c1)C(=O)NC1CCCCC1` [9-A16, 3-[1-(2-chloroethyl)-1H-pyrazol-4-yl]-2-cyano-N-cyclohexylprop-2-enamide] stands 109%; under `CCc1cc(SC#N)cc(C)c1NC(=O)CCl` [4-M04, 2-chloro-N-[4-(cyanosulfanyl)-2-ethyl-6-methylphenyl]acetamide], 17.6%; under `N#CC(=Cc1cccc(Cl)c1)C(=O)Nc1ccccc1C(F)(F)F` [8-J13, 3-(3-chlorophenyl)-2-cyano-N-[2-(trifluoromethyl)phenyl]prop-2-enamide], 101%.
`C=CC(=O)NCc1ccc(-n2ccc(C3CC3)n2)cc1` [2-B03, N-{[4-(3-cyclopropyl-1H-pyrazol-1-yl)phenyl]methyl}prop-2-enamide]: the viability at 48 h, 25 µM came out at 85.9%.
As to `CC(Cl)C(=O)N1CCCC(CNC(=O)Nc2ccc(F)cc2)C1` (stereo not shown) [6-J22, 3-{[1-(2-chloropropanoyl)piperidin-3-yl]methyl}-1-(4-fluorophenyl)urea], the viability at 48 h, 25 µM came out at 105%.
In the case of `COc1ccc(C=C(C#N)C(=O)Nc2cccc([N+](=O)[O-])c2)cc1` [8-I03, 2-cyano-3-(4-methoxyphenyl)-N-(3-nitrophenyl)prop-2-enamide], the viability at 48 h, 25 µM worked out at 105%.
`CCn1cc(CN(C)C(=O)C(C)Cl)nn1` (stereo not shown) [6-L22, 2-chloro-N-[(1-ethyl-1H-1,2,3-triazol-4-yl)methyl]-N-methylpropanamide]: the viability at 48 h, 25 µM was found to be 94.7%.
As to `C=CC(=O)NCCN1CCn2nccc2C1` [3-F21, N-(2-{4H,5H,6H,7H-pyrazolo[1,5-a]pyrazin-5-yl}ethyl)prop-2-enamide], the viability at 48 h, 25 µM was 72.8%.
`N#CC(=Cc1ccc(N)cc1)C(=O)N1CCCC1` [9-E14, 3-(4-aminophenyl)-2-(pyrrolidine-1-carbonyl)prop-2-enenitrile]: the viability at 48 h, 25 µM was found to be 101%.
Take `C=CC(=O)NCc1ccnc(OC2CCOCC2)c1` [2-B17, N-{[2-(oxan-4-yloxy)pyridin-4-yl]methyl}prop-2-enamide]: the viability at 48 h, 25 µM was 69.9%.
The value for `C=CC(=O)N1CCOC(c2cccc(OC)c2)C1` (stereo not shown) [3-E09, 1-[2-(3-methoxyphenyl)morpholin-4-yl]prop-2-en-1-one] was 34.5%; that for `Cc1cc(C(=O)CCl)c(C)n1-c1ccc(C(C)C)cc1` [10-J12, 2-chloro-1-{2,5-dimethyl-1-[4-(propan-2-yl)phenyl]-1H-pyrrol-3-yl}ethan-1-one] was 0.754%; that for `CC(Cl)C(=O)N(Cc1ccc(Cl)cc1)Cc1cnn(C)c1` (stereo not shown) [5-P17, 2-chloro-N-[(4-chlorophenyl)methyl]-N-[(1-methyl-1H-pyrazol-4-yl)methyl]propanamide] was 116%.
As for `O=C(CCl)NCc1nn(-c2ccccc2)c2c1CCC2` [7-B06, 2-chloro-N-({1-phenyl-1H,4H,5H,6H-cyclopenta[c]pyrazol-3-yl}methyl)acetamide], the viability at 48 h, 25 µM stood at 0.565%.
The value for `CC(Cl)C(=O)N[C@H]1CCC(=O)N[C@@H]1c1ccnn1C` (mixture of isomers) [6-B14, rac-2-chloro-N-[(2R,3R)-2-(1-methyl-1H-pyrazol-5-yl)-6-oxopiperidin-3-yl]propanamide] was 92.4%.
With `Cn1cccc1C(=O)CCl` [10-B04, 2-chloro-1-(1-methyl-1H-pyrrol-2-yl)ethan-1-one], the viability at 48 h, 25 µM was determined as 64.6%.
For the compound `CC1CCCCC1NC(=O)C(C#N)=Cc1cccc(O)c1` (stereo not shown) [8-E07, 2-cyano-3-(3-hydroxyphenyl)-N-(2-methylcyclohexyl)prop-2-enamide], the viability at 48 h, 25 µM turned out to be 45.1%.
For `C=CC(=O)NC(C)C(c1ccccc1Cl)n1cccn1` (stereo not shown) [2-J05, N-[1-(2-chlorophenyl)-1-(1H-pyrazol-1-yl)propan-2-yl]prop-2-enamide], the viability at 48 h, 25 µM was 84.5%.
For the compound `COc1ccc(NC(=O)CCl)cc1S(=O)(=O)N(C)C` [4-E15, 2-chloro-N-[3-(dimethylsulfamoyl)-4-methoxyphenyl]acetamide], the viability at 48 h, 25 µM is 0.774%.
The value for `Cc1ccc(NC(=O)C2CSCN2C(=O)CCl)c(C)c1` (stereo not shown) [5-M07, 3-(2-chloroacetyl)-N-(2,4-dimethylphenyl)-1,3-thiazolidine-4-carboxamide] was 0.0812%.
For `CC(Cl)C(=O)N1c2ccccc2NC(=O)C1(C)C` (stereo not shown) [4-C08, 4-(2-chloropropanoyl)-3,3-dimethyl-1,2,3,4-tetrahydroquinoxalin-2-one], the viability at 48 h, 25 µM worked out at 69.5%.
`O=C(O)c1csc(C(=O)CCl)c1` [10-E22, 5-(2-chloroacetyl)thiophene-3-carboxylic acid]: the viability at 48 h, 25 µM is 91.8%.
As to `N#CC(=Cc1ccc(Cl)cc1)C(=O)Nc1cccc2c1C(=O)NC2=O` [9-D09, 3-(4-chlorophenyl)-2-cyano-N-(1,3-dioxo-2,3-dihydro-1H-isoindol-4-yl)prop-2-enamide], the viability at 48 h, 25 µM worked out at 105%.
Under `C=CC(=O)N(C)CC(=O)N1CCN(C(=O)C2CCCCC2)CC1` [3-O10, N-[2-(4-cyclohexanecarbonylpiperazin-1-yl)-2-oxoethyl]-N-methylprop-2-enamide] stands 93.8%.
Turning to `CC(NC(=O)CCl)c1nc2c(s1)CCCCC2` (stereo not shown) [7-M22, 2-chloro-N-(1-{4H,5H,6H,7H,8H-cyclohepta[d][1,3]thiazol-2-yl}ethyl)acetamide], the viability at 48 h, 25 µM is 0.506%.
Under `O=C(CCl)N1N=C(c2cccs2)CC1c1ccc(F)cc1` (stereo not shown) [4-O20, 2-chloro-1-[5-(4-fluorophenyl)-3-(thiophen-2-yl)-4,5-dihydro-1H-pyrazol-1-yl]ethan-1-one] stands 0.502%.

Values taken from publication PMC11995724, “Antibiotic target discovery by integrated phenotypic and activity-based profiling of electrophilic fragments” (Cell chemical biology, 2025).
